One assay has as its system HDAC1, HDAC3, and HDAC6. The assay is described as follows: Isoform preference across HDAC1, HDAC3 and HDAC6. The format is biochemical.
For assay [1], the system named is HDAC activity of HeLa cell lysates.
The test system is the same in assay [2]. The following applies: ref 16b, cited from earlier work.

The structures appear in SMILES notation.

For `CC(CCCCC(=O)NO)CC(=O)Nc1ccccc1` (stereo not shown) [2a], in the assay on HDAC1, HDAC3, and HDAC6 (500 nM), the “isoform preference in single-concentration screen” value (“isoform preference” below) was “modest dual-preference for HDAC1 and HDAC3 over HDAC6”.

Consider `O=C(CCCCC(CC(=O)Nc1ccccc1)c1ccccc1)NO` (stereo not shown) [2b], for which the “isoform preference” value with HDAC1, HDAC3, and HDAC6 (500 nM) was “similarly inhibited HDAC1, HDAC3, and HDAC6”.

With `CC(C)(C)C(CCCCC(=O)NO)CC(=O)Nc1ccccc1` (stereo not shown) [2c], the “fold reduced potency compared to SAHA” value in assay [1] is given as 20 fold. Also, in the assay on HDAC1, HDAC3, and HDAC6 (2 µM), the “isoform preference” value is “preference for HDAC1 and HDAC6 over HDAC3”.

With `CCCCC(CC)CC(CCCCC(=O)NO)CC(=O)Nc1ccccc1` (stereo not shown) [2d], the “isoform preference” value in the assay on HDAC1, HDAC3, and HDAC6 (500 nM) was “preference for HDAC3 over HDAC1 and HDAC6”.

In general, IC50 refers to the point on the concentration scale where inhibition reaches its midpoint. Take `O=C(CC(CCCCC(=O)Nc1ccccc1)c1ccccc1)NO` (stereo not shown) [C3-phenyl SAHA variant]: the IC50 in assay [2] (read-out: IC50, HDAC inhibition) is 73 µM. For the same molecule, the “fold reduced activity versus SAHA” value in assay [2] is on record as 811 fold.

Values taken from article PMC3745031 (Bioorganic & medicinal chemistry letters, 2012).
